Experiments:
[1] = test system: Colon26 large intestine cancer cells; assay: Colon26 tumor-bearing mice, HMGN peptide in combination with anti-PD-L1 antibody, tumor volume; assay type: in vivo, mouse; settings: for anti-tumor effect, tumor volume 24 days after tumor implantation (FIG. 11) / anti-tumor effect compared with Pep1 (FIG. 11): same molar dose as 300 ng of Pep1; for anti-tumor effect, tumor volume 24 days after tumor implantation (FIG. 11): vs anti-PD-L1 antibody single administration group; for tumor growth (time-dependent change in tumor volume, FIG. 7): Pep1 60 and 300 ng/mouse, other peptides three equimolar doses, common ratio 5 (Pep1core 8 to 200 ng/mouse); for growth of Colon26 solid tumor, tumor volume 26 days after tumor cell implantation (FIG. 5, FIG. 6): peptide equimolar to Pep1 300 ng/mouse (two doses, common ratio 5, for Pep1ΔN2 and Pep1 mutant), vs anti-PD-L1 alone
From the text: (§1) Seven-week-old male BALB/c mice were used in groups of 8 mice, and Colon26 large intestine cancer cells were subcutaneously transplanted into the right flank at 2×10^5 cells/mouse.
(§2) An anti-mouse PD-L1 antibody (clone 10F.9G2) and an anti-mouse CD4 depleting antibody (clone GK1.5) were purchased from BioXcell.
(§3) The HMGN peptide was intraperitoneally administered at a dose described below four times in total at 9, 14, 17 and 20 days after tumor cell implantation. The anti-mouse PD-L1 antibody was intraperitoneally administered at 200 μg/mouse four times in total at 4, 8, 14 and 18 days after tumor cell implantation. The anti-mouse CD4 antibody was intraperitoneally administered at a dose of 200 μg/mouse twice in total at 5 and 9 days after tumor cell implantation. The long diameter and short diameter of the solid tumor were measured every 3 to 4 days, and tumor volume was calculated by the following calculation formula. Tumor volume (mm^3)=(Long diameter; mm)×(Short diameter; mm)^2×0.5236

[2] = test system: Colon26 large intestine cancer cells; assay: Colon26 tumor-bearing mice, HMGN peptide in combination with anti-CD4 antibody, tumor volume; assay type: in vivo; settings: Pep1 800 ng/mouse + anti-CD4 antibody 200 μg/mouse
From the text: as §1, §2, §3
The partial peptide of human HMGN1, Pep1 (800 ng/mouse), was administered to Colon26 tumor-bearing mice in combination with an anti-CD4 antibody (200 μg/mouse), and the anti-tumor effect was investigated.

[3] = test system: Colon26 large intestine cancer cells; assay: Colon26 tumor-bearing mice, HMGN peptide single administration, tumor volume; assay type: in vivo, mouse; settings: Pep1 alone; vs control group
Protocol: as §1, §3
A partial fragment (human HMGN1 NBD peptide 1; Pep1, SEQ ID NO: 3) of human HMGN1 (SEQ ID NO: 17) corresponding to mPep1 was prepared and administered to Colon26 tumor-bearing mice alone or in combination with an anti-PD-L1 antibody (200 μg/mouse), and the anti-tumor effect was investigated.

[4] = + anti-PD-L1 antibody 200 μg/mouse

## Human HMGN3 NBD-peptide [PepN3]
[1]; + anti-PD-L1 antibody
  anti-tumor effect, tumor volume 24 days after tumor implantation (FIG. 11): no anti-tumor effect

## Human HMGN2 NBD-peptide [PepN2]
[1]; + anti-PD-L1 antibody
  anti-tumor effect compared with Pep1 (FIG. 11): at the same level as Pep1
  anti-tumor effect, tumor volume 24 days after tumor implantation (FIG. 11): significant anti-tumor effects

## Human HMGN1 NBD-peptide 1 core (EPKRRSARLSAKPPAKVEAKPKK; Human HMGN1 NBD-peptide1 core (Pep1core)) [10th to 32nd residues of Pep1]
[1]; [4]
  tumor growth (time-dependent change in tumor volume, FIG. 7): suppressed in a dose-dependent manner
[1]; doses of 40 and 200 ng/mouse, + anti-PD-L1 antibody
  tumor volume 27 days after implantation, difference from anti-PD-L1 antibody single administration group (FIG. 8): significant difference was observed

## Human HMGN1 NBD-peptide 1 Δ N1 (AAKEEPKRRSARLSAKPPAKVEAKPKKAAAKD; Human HMGN1 NBD-peptide 1 delta-N1 (Pep1 delta-N1)) [Pep1ΔN1, N-terminal 5 residues of Pep1 removed]
[1]; doses of 53 and 267 ng/mouse, + anti-PD-L1 antibody 200 μg/mouse
  Colon26 solid tumor growth (FIG. 5, FIG. 6): significantly suppressed

## Human HMGN1 NBD-peptide 1 Δ C2 (SSAEGAAKEEPKRRSARLSAKPPAKVEA; Human HMGN1 NBD-peptide 1 delta-C2 (Pep1 delta-C2)) [Pep1ΔC2, C-terminal 9 residues of Pep1 removed]
[1]; [4]
  growth of Colon26 solid tumor, tumor volume 26 days after tumor cell implantation (FIG. 5, FIG. 6): ineffective

## Human HMGN4 NBD-peptide [PepN4]
[1]; + anti-PD-L1 antibody
  anti-tumor effect compared with Pep1 (FIG. 11): at the same level as Pep1
  anti-tumor effect, tumor volume 24 days after tumor implantation (FIG. 11): significant anti-tumor effects

## HMGN5 NBD-peptide (GQGDMRQEPKRRSARLSAMLVPVTPEVKPKRTSSSRKMKTKSD; Human HMGN5 NBD-peptide (N5Pep)) [PepN5, partial region containing NBD of human HMGN5]
[1]; + anti-PD-L1 antibody
  anti-tumor effect compared with Pep1 (FIG. 11): at the same level as Pep1
  anti-tumor effect, tumor volume 24 days after tumor implantation (FIG. 11): significant anti-tumor effects

## Human HMGN1 NBD-peptide 1 Δ N2 (EPKRRSARLSAKPPAKVEAKPKKAAAKD; Human HMGN1 NBD-peptide 1 delta-N2 (Pep1 delta-N2)) [Pep1ΔN2, N-terminal 9 residues of Pep1 removed]
[1]; [4]
  tumor growth (time-dependent change in tumor volume, FIG. 7): synergistic effect
  growth of Colon26 solid tumor, tumor volume 26 days after tumor cell implantation (FIG. 5, FIG. 6): similarly suppressed solid tumors
[1]; dose of 9.4 ng/mouse, + anti-PD-L1 antibody
  solid tumors completely regressed: 4 cases out of 8 cases

## Human HMGN1 NBD-peptide 1 (SSAEGAAKEEPKRRSARLSAKPPAKVEAKPKKAAAKD; Human HMGN1 NBD-peptide 1 (Pep1))
[2]
  Colon26 solid tumor growth (FIG. 12, FIG. 13; tumor volume 24 days after implantation): synergistically suppressed Colon26 solid tumor growth
[3]
  growth of Colon26 solid tumor, tumor volume 23 days after tumor implantation (FIG. 3): significantly suppressed growth of Colon26 solid tumor in a dose-dependent manner
[1]; 3 ng/mouse and 30 ng/mouse, + anti-PD-L1 antibody
  anti-tumor effect (FIG. 3): effective
[1]; [4]
  tumor growth (time-dependent change in tumor volume, FIG. 7): synergistically suppressed tumor growth
  growth of Colon26 solid tumor, tumor volume 26 days after tumor cell implantation (FIG. 5, FIG. 6): significantly suppressed
[1]; Pep1 + anti-PD-L1 antibody 200 μg/mouse
  tumor growth (FIG. 3, FIG. 4): synergistically suppressed tumor growth
[1]; both + anti-PD-L1 antibody
  potency difference in the anti-tumor action between PepO and Pep1: ≥ 300 times

## Human HMGN1 peptide O (KEEPKRRSARLSAKPPAKVEAKPKKAAAKDKSSDKK; Human HMGN1 peptide O (PepO)) [known HMGN peptide of U.S. Pat. No. 8,227,417, reference compound]
[1]; 954 ng/mouse, + anti-PD-L1 antibody 200 μg/mouse
  complete regression of solid tumors: 3 mice
[1]; dose of 318 ng/mouse (equimolar to Pep1 300 ng/mouse), + anti-PD-L1 antibody 200 μg/mouse
  anti-tumor effect, tumor volume 24 days after tumor implantation (FIG. 9, FIG. 10): no anti-tumor effect
[1]; triple dose of 954 ng/mouse, + anti-PD-L1 antibody 200 μg/mouse
  tumor growth, tumor volume 24 days after tumor implantation (FIG. 9, FIG. 10): significantly suppressed tumor growth

## Human HMGN1 NBD-peptide 1 mutant (SAEGAAKEEPKDDSADLSAKPPAKVEAKPKKAAAKD; Human HMGN1 NBD-peptide 1 mutant (Pep1 mutant)) [R→D mutant of Pep1, N-terminal 1 residue removed]
[1]; [4]
  growth of Colon26 solid tumor, tumor volume 26 days after tumor cell implantation (FIG. 5, FIG. 6): same anti-tumor action as Pep1

## mouse HMGN1 NBD-peptide 2 (VQIKGKRGAKGKQADVADQQTTELPAENGETENQSPASEE; mouse HMGN1 NBD-peptide 2 (mPep2)) [region at the C-terminal side of mouse HMGN1 NBD]
[1]; doses of 30, 300 ng/mouse (mPep2 same molar number), + anti-PD-L1 antibody, vs control group
  tumor volume 24 days after Colon26 tumor cell implantation (FIG. 2): ineffective
[1]; mPep1 30 or 300 ng/mouse, mPep2 33 or 330 ng/mouse, i.p. four times, + anti-PD-L1 antibody 200 μg/mouse
  tumor growth (time-dependent change in tumor volume, FIG. 1): no combined effect

## Human HMGN1 NBD-peptide 1 Δ N3 (SARLSAKPPAKVEAKPKKAAAKD; Human HMGN1 NBD-peptide 1 delta-N3 (Pep1 delta-N3)) [Pep1ΔN3, N-terminal 14 residues of Pep1 removed]
[1]; [4]
  growth of Colon26 solid tumor, tumor volume 26 days after tumor cell implantation (FIG. 5, FIG. 6): ineffective

## Human HMGN1 NBD-peptide 1 Δ C (SSAEGAAKEEPKRRSARLSAKPPA; Human HMGN1 NBD-peptide 1 delta-C (Pep1 delta-C)) [Pep1 ΔC, C-terminal 13 residues of Pep1 removed]
[1]; [4]
  growth of Colon26 solid tumor, tumor volume 26 days after tumor cell implantation (FIG. 5, FIG. 6): anti-tumor effect of the peptide was lost

## Human HMGN1 NBD-peptide 1 Δ C1 (SSAEGAAKEEPKRRSARLSAKPPAKVEAKPKK; Human HMGN1 NBD-peptide 1 delta-C1 (Pep1 delta-C1)) [Pep1ΔC1, C-terminal 5 residues of Pep1 removed]
[1]; dose of 53 ng, + anti-PD-L1 antibody
  complete regression of solid tumors: 1 case
[1]; doses of 11 and 265 ng/mouse, + anti-PD-L1 antibody
  complete regression of solid tumors: 3 cases out of 8 cases
[1]; [4]
  growth of Colon26 solid tumor, tumor volume 26 days after tumor cell implantation (FIG. 5, FIG. 6): significantly suppressed

From patent publication US11919932B2, “HMGN partial peptide and cancer therapy using the same” (The University of Tokyo, priority 2018, dated 2024)
